Laboratory results from ChEMBL document CHEMBL3745631, “Discovery of highly potent and selective Bruton's tyrosine kinase inhibitors: Pyridazinone analogs with improved metabolic stability” (Bioorg Med Chem Lett, 2016).

Columns and labels:
[1] = system: Rattus norvegicus; test: Clearance in rat at 1 mg/kg, iv by LC-MS/MS analysis; assay type: ADME, organism-based; settings: in vivo
[2] = Oral bioavailability in mouse at 5 mg/kg by LC-MS/MS analysis; assay type: ADME, organism-based; settings: in vivo
[3] = biological target: Serine/threonine-protein kinase PAK 4 (Homo sapiens) (UniProt O96013); test: Inhibition of PAK4 (unknown origin) at 1 uM
Sequence of Serine/threonine-protein kinase PAK 4 (Homo sapiens) (O96013 whole entry, looked up): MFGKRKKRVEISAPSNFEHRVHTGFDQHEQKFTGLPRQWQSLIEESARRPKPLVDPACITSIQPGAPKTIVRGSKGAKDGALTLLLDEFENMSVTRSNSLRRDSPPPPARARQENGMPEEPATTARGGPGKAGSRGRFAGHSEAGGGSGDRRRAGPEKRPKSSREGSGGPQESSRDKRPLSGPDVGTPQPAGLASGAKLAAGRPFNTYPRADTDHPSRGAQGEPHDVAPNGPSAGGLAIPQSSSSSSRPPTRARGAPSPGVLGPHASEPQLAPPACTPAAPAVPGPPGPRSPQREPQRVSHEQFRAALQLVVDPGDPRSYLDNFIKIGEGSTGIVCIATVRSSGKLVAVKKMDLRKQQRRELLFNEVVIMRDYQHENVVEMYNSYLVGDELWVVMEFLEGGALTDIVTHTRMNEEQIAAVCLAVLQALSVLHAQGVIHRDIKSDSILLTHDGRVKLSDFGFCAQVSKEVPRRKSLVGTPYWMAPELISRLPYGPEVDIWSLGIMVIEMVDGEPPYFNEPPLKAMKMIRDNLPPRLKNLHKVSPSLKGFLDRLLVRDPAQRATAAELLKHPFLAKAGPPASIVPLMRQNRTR

[4] = biological target: Ribosomal protein S6 kinase alpha-3 (Homo sapiens) (UniProt P51812); test: Inhibition of Rsk2 (unknown origin) at 1 uM
[5] = biological target: Fibroblast growth factor receptor 3 (Homo sapiens) (UniProt P22607); test: Inhibition of FGFR3 (unknown origin) at 1 uM
[6] = biological target: Protein kinase C delta type (Homo sapiens) (UniProt Q05655); test: Inhibition of PKCdelta (unknown origin) at 1 uM
[7] = biological target: Maternal embryonic leucine zipper kinase (Homo sapiens, UniProt Q14680); test: Inhibition of MELK (unknown origin)
[8] = system: Salmonella typhimurium; test: Genotoxicity in Salmonella typhimurium TA100 by Ames test in presence of S9 fraction; assay type: toxicity, organism-based; settings: salmonella enterica subsp. enterica serovar typhimurium
[9] = system: Salmonella typhimurium; test: Genotoxicity in Salmonella typhimurium TA98 by Ames test in absence of S9 fraction; assay type: toxicity, organism-based; settings: salmonella enterica subsp. enterica serovar typhimurium
[10] = system: Salmonella typhimurium; test: Genotoxicity in Salmonella typhimurium TA100 by Ames test in absence of S9 fraction; assay type: toxicity, organism-based; settings: salmonella enterica subsp. enterica serovar typhimurium
[11] = biological target: Mitogen-activated protein kinase kinase kinase kinase 4 (Homo sapiens) (UniProt O95819); test: Inhibition of MAP4K4 (unknown origin) at 1 uM
Sequence of Mitogen-activated protein kinase kinase kinase kinase 4 (Homo sapiens) (O95819 2-1239 limits assumed): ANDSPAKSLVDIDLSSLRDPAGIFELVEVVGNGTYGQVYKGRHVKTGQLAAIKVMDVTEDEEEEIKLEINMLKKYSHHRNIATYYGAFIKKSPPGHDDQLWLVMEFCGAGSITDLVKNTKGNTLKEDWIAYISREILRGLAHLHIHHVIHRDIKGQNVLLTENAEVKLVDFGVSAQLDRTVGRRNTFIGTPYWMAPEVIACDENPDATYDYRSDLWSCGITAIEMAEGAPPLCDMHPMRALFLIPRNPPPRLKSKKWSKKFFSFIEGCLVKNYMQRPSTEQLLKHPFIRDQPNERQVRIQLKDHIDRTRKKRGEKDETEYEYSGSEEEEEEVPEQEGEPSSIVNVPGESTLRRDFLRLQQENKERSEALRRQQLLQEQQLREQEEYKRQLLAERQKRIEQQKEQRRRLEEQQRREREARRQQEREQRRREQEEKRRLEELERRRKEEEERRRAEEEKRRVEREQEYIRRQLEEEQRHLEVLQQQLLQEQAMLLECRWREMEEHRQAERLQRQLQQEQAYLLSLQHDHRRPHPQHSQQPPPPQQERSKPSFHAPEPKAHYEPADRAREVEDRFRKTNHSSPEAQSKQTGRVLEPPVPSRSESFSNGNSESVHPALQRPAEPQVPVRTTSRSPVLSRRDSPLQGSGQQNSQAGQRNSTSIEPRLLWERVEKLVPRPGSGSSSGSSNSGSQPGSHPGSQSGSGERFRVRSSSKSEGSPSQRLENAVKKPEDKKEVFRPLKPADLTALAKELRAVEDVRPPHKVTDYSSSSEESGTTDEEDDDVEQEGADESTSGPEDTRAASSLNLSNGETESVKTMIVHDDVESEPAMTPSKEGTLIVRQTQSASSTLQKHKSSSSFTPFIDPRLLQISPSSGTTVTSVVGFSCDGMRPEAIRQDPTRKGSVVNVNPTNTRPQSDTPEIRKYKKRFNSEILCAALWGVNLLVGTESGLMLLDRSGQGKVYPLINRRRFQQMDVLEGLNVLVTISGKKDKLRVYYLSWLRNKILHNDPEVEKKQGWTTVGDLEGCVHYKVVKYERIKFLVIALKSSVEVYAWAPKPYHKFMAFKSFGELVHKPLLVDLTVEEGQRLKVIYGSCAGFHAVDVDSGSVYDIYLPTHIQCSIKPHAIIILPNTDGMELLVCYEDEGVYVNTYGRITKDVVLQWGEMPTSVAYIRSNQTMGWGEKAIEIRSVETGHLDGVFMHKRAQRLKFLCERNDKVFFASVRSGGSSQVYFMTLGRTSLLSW

[12] = biological target: Phosphorylase b kinase gamma catalytic chain, liver/testis isoform (Homo sapiens) (UniProt P15735); test: Inhibition of PhK gamma2 (unknown origin) at 1 uM
Sequence of Phosphorylase b kinase gamma catalytic chain, liver/testis isoform (Homo sapiens) (P15735 whole entry, canonical isoform): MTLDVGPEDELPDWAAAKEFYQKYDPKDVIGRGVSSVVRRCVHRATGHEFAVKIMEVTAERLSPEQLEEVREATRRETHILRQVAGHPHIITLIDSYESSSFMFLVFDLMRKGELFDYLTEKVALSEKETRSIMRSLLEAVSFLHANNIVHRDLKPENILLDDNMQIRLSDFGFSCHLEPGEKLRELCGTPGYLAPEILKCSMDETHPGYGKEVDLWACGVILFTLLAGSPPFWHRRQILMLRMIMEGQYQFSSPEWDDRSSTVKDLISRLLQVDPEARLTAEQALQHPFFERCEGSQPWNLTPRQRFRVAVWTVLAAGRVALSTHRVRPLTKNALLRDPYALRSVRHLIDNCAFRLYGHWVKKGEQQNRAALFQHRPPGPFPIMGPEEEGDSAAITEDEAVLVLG

[13] = biological target: Serine/threonine-protein kinase Nek1 (Homo sapiens) (UniProt Q96PY6); test: Inhibition of NEK1 (unknown origin) at 1 uM
[14] = biological target: Serine/threonine-protein kinase N1 (Homo sapiens) (UniProt Q16512); test: Inhibition of PRK1 (unknown origin) at 1 uM
[15] = biological target: Misshapen-like kinase 1 (Homo sapiens) (UniProt Q8N4C8); test: Inhibition of Mink1 (unknown origin) at 1 uM
[16] = biological target: Mitogen-activated protein kinase kinase kinase kinase 5 (Homo sapiens) (UniProt Q9Y4K4); test: Inhibition of KHS1 (unknown origin) at 1 uM
[17] = biological target: Calcium/calmodulin-dependent protein kinase type II subunit alpha (Homo sapiens) (UniProt Q9UQM7); test: Inhibition of CamK2 alpha (unknown origin) at 1 uM
[18] = biological target: MAP kinase-activated protein kinase 5 (Homo sapiens) (UniProt Q8IW41); test: Inhibition of PRAK (unknown origin) at 1 uM
[19] = biological target: Mitogen-activated protein kinase 14 (Homo sapiens) (UniProt Q16539); test: Inhibition of p38alpha (unknown origin) at 1 uM
[20] = biological target: Casein kinase II subunit alpha (Homo sapiens) (UniProt P68400); test: Inhibition of CK2 alpha1 (unknown origin) at 1 uM
[21] = biological target: Epithelial discoidin domain-containing receptor 1 (Homo sapiens) (UniProt Q08345); test: Inhibition of DDR1 (unknown origin) at 1 uM
[22] = biological target: Dual specificity mitogen-activated protein kinase kinase 3 (Homo sapiens) (UniProt P46734); test: Inhibition of MEK3 (unknown origin) at 1 uM
[23] = biological target: Serine/threonine-protein kinase DCLK2 (Homo sapiens) (UniProt Q8N568); test: Inhibition of DCAMKL2 (unknown origin) at 1 uM
[24] = biological target: Wee1-like protein kinase (Homo sapiens) (UniProt P30291); test: Inhibition of WEE1 (unknown origin) at 1 uM
[25] = biological target: SRSF protein kinase 2 (Homo sapiens) (UniProt P78362); test: Inhibition of SRPK2 (unknown origin) at 1 uM
[26] = biological target: Mitogen-activated protein kinase kinase kinase 5 (Homo sapiens) (UniProt Q99683); test: Inhibition of ASK1 (unknown origin) at 1 uM
[27] = biological target: TGF-beta-activated kinase 1 and MAP3K7-binding protein 1 (Homo sapiens) (UniProt Q15750); test: Inhibition of TAK1-TAB1 (unknown origin) at 1 uM
[28] = biological target: Tyrosine-protein kinase ZAP-70 (Homo sapiens) (UniProt P43403); test: Inhibition of ZAP-70 (unknown origin) at 1 uM
[29] = biological target: Homeodomain-interacting protein kinase 4 (Homo sapiens) (UniProt Q8NE63); test: Inhibition of HIPK4 (unknown origin) at 1 uM
[30] = biological target: Serine/threonine-protein kinase 17A (Homo sapiens) (UniProt Q9UEE5); test: Inhibition of DRAK1 (unknown origin) at 1 uM
[31] = biological target: Mitogen-activated protein kinase 1 (Homo sapiens) (UniProt P28482); test: Inhibition of ERK2 (unknown origin) at 1 uM
[32] = biological target: Dual specificity protein kinase CLK1 (Homo sapiens) (UniProt P49759); test: Inhibition of CLK1 (unknown origin) at 1 uM
[33] = biological target: Serine/threonine-protein kinase Chk1 (Homo sapiens) (UniProt O14757); test: Inhibition of CHK1 (unknown origin) at 1 uM
Sequence of Serine/threonine-protein kinase Chk1 (Homo sapiens) (O14757 whole entry): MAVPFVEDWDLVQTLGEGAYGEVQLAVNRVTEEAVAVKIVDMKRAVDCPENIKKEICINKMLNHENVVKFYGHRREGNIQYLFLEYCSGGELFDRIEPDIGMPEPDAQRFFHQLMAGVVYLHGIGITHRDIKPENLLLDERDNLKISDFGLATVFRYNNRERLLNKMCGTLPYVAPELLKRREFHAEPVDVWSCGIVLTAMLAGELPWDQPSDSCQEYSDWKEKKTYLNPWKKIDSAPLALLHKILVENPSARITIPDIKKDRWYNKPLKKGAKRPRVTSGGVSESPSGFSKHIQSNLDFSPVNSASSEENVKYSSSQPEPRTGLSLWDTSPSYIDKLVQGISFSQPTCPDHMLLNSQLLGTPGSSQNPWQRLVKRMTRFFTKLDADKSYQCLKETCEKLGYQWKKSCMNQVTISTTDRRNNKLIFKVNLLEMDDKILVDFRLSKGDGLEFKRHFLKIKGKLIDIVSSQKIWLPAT

[34] = biological target: Activin receptor type-2B (Homo sapiens) (UniProt Q13705); test: Inhibition of ACVR2B (unknown origin) at 1 uM
[35] = biological target: Non-receptor tyrosine-protein kinase TYK2 (Homo sapiens) (UniProt P29597); test: Inhibition of TYK2 (unknown origin) at 1 uM
Sequence of Non-receptor tyrosine-protein kinase TYK2 (Homo sapiens) (P29597 whole entry): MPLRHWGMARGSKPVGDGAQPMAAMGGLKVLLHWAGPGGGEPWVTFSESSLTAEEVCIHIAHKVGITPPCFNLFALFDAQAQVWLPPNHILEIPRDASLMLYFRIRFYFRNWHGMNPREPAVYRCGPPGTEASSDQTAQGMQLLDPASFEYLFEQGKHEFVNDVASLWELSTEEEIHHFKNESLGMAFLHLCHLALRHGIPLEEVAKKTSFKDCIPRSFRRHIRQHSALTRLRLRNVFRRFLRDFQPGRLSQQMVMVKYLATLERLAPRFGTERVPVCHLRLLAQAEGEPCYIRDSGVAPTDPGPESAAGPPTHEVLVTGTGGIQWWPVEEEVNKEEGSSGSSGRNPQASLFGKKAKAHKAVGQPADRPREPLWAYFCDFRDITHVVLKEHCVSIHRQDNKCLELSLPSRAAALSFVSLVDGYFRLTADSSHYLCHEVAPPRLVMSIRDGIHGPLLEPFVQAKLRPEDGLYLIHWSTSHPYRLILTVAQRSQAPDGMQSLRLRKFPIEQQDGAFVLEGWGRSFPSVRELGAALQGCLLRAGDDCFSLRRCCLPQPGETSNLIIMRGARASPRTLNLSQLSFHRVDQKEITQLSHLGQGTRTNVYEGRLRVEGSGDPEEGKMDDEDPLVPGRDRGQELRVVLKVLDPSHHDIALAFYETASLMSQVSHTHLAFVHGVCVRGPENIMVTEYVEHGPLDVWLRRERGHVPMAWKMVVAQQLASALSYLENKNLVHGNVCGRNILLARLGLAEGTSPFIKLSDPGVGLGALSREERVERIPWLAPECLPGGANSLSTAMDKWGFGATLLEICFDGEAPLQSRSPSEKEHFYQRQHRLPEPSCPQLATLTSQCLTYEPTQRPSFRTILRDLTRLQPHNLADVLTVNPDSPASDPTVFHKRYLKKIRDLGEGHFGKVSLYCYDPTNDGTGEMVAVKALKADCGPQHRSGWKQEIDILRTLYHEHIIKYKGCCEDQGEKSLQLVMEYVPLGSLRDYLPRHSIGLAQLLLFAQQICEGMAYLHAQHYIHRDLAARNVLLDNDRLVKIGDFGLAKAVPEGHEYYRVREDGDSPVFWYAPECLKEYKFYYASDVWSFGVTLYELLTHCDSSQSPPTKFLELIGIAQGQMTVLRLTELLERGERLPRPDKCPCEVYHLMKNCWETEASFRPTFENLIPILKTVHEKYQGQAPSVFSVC

[36] = biological target: Activin receptor type-1B (Homo sapiens) (UniProt P36896); test: Inhibition of ACVR1B (unknown origin) at 1 uM
Sequence of Activin receptor type-1B (Homo sapiens) (P36896 whole entry): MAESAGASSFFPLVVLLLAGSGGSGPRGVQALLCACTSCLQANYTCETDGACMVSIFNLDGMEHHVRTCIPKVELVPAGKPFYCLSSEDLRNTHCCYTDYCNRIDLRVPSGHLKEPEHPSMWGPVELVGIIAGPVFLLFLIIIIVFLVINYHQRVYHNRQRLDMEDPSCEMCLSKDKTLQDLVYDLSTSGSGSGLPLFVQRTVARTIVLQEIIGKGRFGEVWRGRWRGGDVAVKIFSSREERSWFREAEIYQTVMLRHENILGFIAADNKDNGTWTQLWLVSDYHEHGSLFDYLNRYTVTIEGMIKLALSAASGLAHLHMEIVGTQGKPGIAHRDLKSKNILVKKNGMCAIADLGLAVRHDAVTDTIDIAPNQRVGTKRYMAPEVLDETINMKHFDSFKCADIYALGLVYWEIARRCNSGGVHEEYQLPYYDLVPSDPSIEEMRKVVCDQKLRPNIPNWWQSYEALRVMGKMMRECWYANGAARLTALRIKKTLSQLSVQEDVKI

[37] = biological target: Serine/threonine-protein kinase 3 (Homo sapiens) (UniProt Q13188); test: Inhibition of MST2 (unknown origin) at 1 uM
Sequence of Serine/threonine-protein kinase 3 (Homo sapiens) (Q13188 whole entry): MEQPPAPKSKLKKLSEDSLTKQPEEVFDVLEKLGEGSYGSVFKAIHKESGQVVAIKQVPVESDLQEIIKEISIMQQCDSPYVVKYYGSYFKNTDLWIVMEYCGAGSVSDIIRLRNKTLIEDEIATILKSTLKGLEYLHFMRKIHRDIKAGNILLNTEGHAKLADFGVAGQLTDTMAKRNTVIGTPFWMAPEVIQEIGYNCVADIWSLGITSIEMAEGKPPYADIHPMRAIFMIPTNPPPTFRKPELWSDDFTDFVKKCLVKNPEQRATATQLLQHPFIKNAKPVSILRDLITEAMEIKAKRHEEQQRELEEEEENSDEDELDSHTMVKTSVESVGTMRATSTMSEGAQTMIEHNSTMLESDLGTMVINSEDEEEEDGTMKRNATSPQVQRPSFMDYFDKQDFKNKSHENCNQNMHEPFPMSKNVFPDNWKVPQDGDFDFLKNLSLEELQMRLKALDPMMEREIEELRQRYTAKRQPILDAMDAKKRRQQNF

[38] = biological target: Tyrosine-protein kinase TXK (Homo sapiens) (UniProt P42681); test: Inhibition of TXK (unknown origin) at 1 uM
[39] = biological target: Rho-associated protein kinase 1 (Homo sapiens) (UniProt Q13464); test: Inhibition of ROCK1 (unknown origin) at 1 uM
[40] = biological target: LIM domain kinase 1 (Homo sapiens) (UniProt P53667); test: Inhibition of LIMK1 (unknown origin) at 1 uM
[41] = biological target: Inhibitor of nuclear factor kappa-B kinase subunit epsilon (Homo sapiens) (UniProt Q14164); test: Inhibition of IKKepsilon (unknown origin) at 1 uM
[42] = biological target: Serine/threonine-protein kinase PAK 1 (Homo sapiens) (UniProt Q13153); test: Inhibition of PAK1 (unknown origin) at 1 uM
[43] = biological target: Mitogen-activated protein kinase kinase kinase kinase 2 (GCK) (Homo sapiens) (UniProt Q12851); test: Inhibition of GCK (unknown origin) at 1 uM
[44] = biological target: STE20-like serine/threonine-protein kinase (SLK) (Homo sapiens) (UniProt Q9H2G2); test: Inhibition of SLK (unknown origin) at 1 uM

clearance [1]: 5 mL/min/kg
bioavailability [2]: 34%
inhibition [3]: 6.2%
inhibition [4]: 1.9%
inhibition [5]: 1.8%
inhibition [6]: -8%
IC50 [7]: > 10 µM
inhibition [11]: 3%
inhibition [12]: 1.8%
inhibition [13]: 1.5%
inhibition [14]: -3.7%
inhibition [15]: 17.8%
inhibition [16]: 17.3%
inhibition [17]: 2.8%
inhibition [18]: 2%
inhibition [19]: 1%
inhibition [20]: 0.8%
inhibition [21]: 0.8%
inhibition [22]: -1.1%
inhibition [23]: -1.2%
inhibition [24]: -1.8%
inhibition [25]: -2%
inhibition [26]: -2.1%
inhibition [27]: 13.7%
inhibition [28]: 8.1%
inhibition [29]: 7.8%
inhibition [30]: 7.6%
inhibition [31]: 6.8%
inhibition [32]: 5%
inhibition [33]: 4.8%
inhibition [34]: 4.5%
inhibition [35]: 4.3%
inhibition [36]: -3.9%
inhibition [37]: -4.1%
inhibition [38]: -4.7%
inhibition [39]: -4.8%
inhibition [40]: -5.5%
inhibition [41]: -5.8%
inhibition [42]: 3.4%
inhibition [43]: -9%
inhibition [44]: -3%
SMILES: Cc1c(-c2cc(Nc3cc4n(n3)CCN(C)C4)c(=O)[nH]n2)ccc(F)c1NC(=O)c1cc2ccccc2s1
Activity [8]: Non-toxic
Activity [9]: Non-toxic
Activity [10]: Non-toxic
